The test system of experiment [1] is beet armyworm larvae. The experiment can be described thus: Leaf dip efficacy and synergy test, beet armyworm larvae. Type of experiment: in vivo. To be noted: Spodoptera exigua, foliar, Bta/Btk 0.8125 ppm, flubendiamide 0.49 ppm, alone or in mixture. The text has this: (§1) The following examples were used to determine the synergy of Bacillus thuringiensis subsp. aizawai, Bacillus thuringiensis subsp. kurstaki and flubendiamide when controlling diamondback moth, beet armyworm, sugarcane borer, soybean looper, corn earworm, cabbage looper, and southwestern corn borer. Sympatico™ emulsifiable suspension (available from Valent BioSciences LLC) was used as the source of Bacillus thuringiensis subsp. aizawai and Bacillus thuringiensis kurstaki. Sympatico™ contains about a 1:0.67 ratio of Bacillus thuringiensis subsp. kurstaki fermentation solids, spores and toxins to Bacillus thuringiensis subsp. aizawai fermentation solids, spores and toxins. Belt® was used as the source of flubendiamide. The present invention is not limited to the commercial products used in the examples. In each example below, the studies were conducted as follows.
(§2) For these tests, standardized laboratory leaf dip methods were used to inoculate plant material with treatment(s). Dry, treated leaves were placed into Petri dishes (100×25 mm) containing filter paper wetted with 500 μl of distilled H2O (“dH2O”). Each dish was then infested with between 5 and 10 larvae, dependent on species. Efficacy ratings were taken at specified intervals. Synergy ratings were calculated for each test. […]

Experiment [2] relates to cabbage looper larvae. The experiment is described as follows: Leaf dip efficacy and synergy test, cabbage looper larvae. It is filed as in vivo. The following applies: Trichoplusia ni, foliar, Bta/Btk 0.8125 ppm, flubendiamide 0.49 ppm, alone or in mixture.
Description: as §1, §2

For experiment [3], the system named is southwestern corn borer larvae. The experiment is described as follows: Leaf dip efficacy and synergy test, southwestern corn borer larvae. To be noted: foliar, Bta/Btk 0.8125 ppm, flubendiamide 0.39 ppm, alone or in mixture. It is filed as in vivo.
Description: as §1, §2

In experiment [4] the test system is sugarcane borer larvae. The experiment can be described thus: Leaf dip efficacy and synergy test, sugarcane borer larvae. Type of experiment: in vivo. The following applies: Diatraea saccharalis, foliar, Bta/Btk 0.8125 ppm, flubendiamide 2.15 ppm, alone or in mixture.
Description: as §1, §2

Experiment [5] deals with soybean looper larvae. The experiment is described as follows: Leaf dip efficacy and synergy test, soybean looper larvae. It is filed as in vivo, Chrysodeixis includens. The following applies: foliar, Bta/Btk 0.26 ppm, flubendiamide 3.9 ppm, alone or in mixture.
Description: as §1, §2

For experiment [6], the system named is diamondback moth larvae. The experiment is described as follows: Leaf dip efficacy and synergy test, diamondback moth larvae. Type of experiment: in vivo. To be noted: Plutella xylostella, foliar, Bta/Btk 0.8125 ppm, flubendiamide 0.215 ppm, alone or in mixture.
Description: as §1, with “In each example below, the studies were conducted as follows.” left out
For these tests, standardized laboratory leaf dip methods were used to inoculate plant material with treatment(s). […] Synergy ratings were calculated for each test. […]
In order to determine synergy, rates below normal field rate ranges must be used. If normal field rate ranges are used, all of the larvae would die (combining a lethal or near lethal dose of Bacillus thuringiensis subsp. aizawai and Bacillus thuringiensis subsp. kurstaki with a lethal dose of flubendiamide would most likely lead to larvae death) in every treatment and synergy would not be able to be determined. […]

The test system of experiment [7] is corn earworm larvae. The experiment can be described thus: Leaf dip efficacy and synergy test, corn earworm larvae. Type of experiment: in vivo. The following applies: Helicoverpa zea, foliar, Bta/Btk 2.6 ppm, flubendiamide 0.975 ppm, alone or in mixture.
Description: as §1, §2

Take `Cc1cc(C(F)(C(F)(F)F)C(F)(F)F)ccc1NC(=O)c1cccc(I)c1C(=O)NC(C)(C)CS(C)(=O)=O` [Flubendiamide, 3-iodo-N′-(2-mesyl-1,1-dimethylethyl)-N-{4-[1,2,2,2-tetrafluoro-1-(trifluoromethyl)ethyl]-o-tolyl}phthalamide]: the Emax at 0.49 ppm in experiment [1] (24 h after treatment) amounted to 10%; in experiment [1] (48 h after treatment), 23%; in experiment [2] (24 h after treatment), 9%; in experiment [2] (48 h after treatment), 65%. Also, the maximal response (Emax) at 0.39 ppm in experiment [3] (24 h after treatment) is 49%; in experiment [3] (48 h after treatment), 51%. Besides, the Emax at 2.15 ppm in experiment [4] (24 h after treatment) is 24%; in experiment [4] (48 h after treatment) it was 33%. In addition, the Emax at 3.9 ppm was determined as 13% in experiment [5] (24 h after treatment) and 38% in experiment [5] (48 h after treatment). In addition, the Emax at 0.215 ppm in experiment [6] (24 h after treatment) was found to be 4%; in experiment [6] (48 h after treatment), 42%. In addition, the Emax at 0.975 ppm in experiment [7] (24 h after treatment) and in experiment [7] (48 h after treatment) was 33% throughout.

As usually defined, the Emax is the greatest response seen or fitted, relative to the assay's reference.

These data come from patent US20170311607A1, “SYNERGISTIC BACILLUS THURINGIENSIS SUBSP. AIZAWAI, BACILLUS THURINGIENSIS SUBSP. KURSTAKI AND FLUBENDIAMIDE MIXTURES FOR DIAMONDBACK MOTH, SUGARCANE BORER, SOYBEAN LOOPER, AND CORN EARWORM” (Valent BioSciences LLC, priority 2016, published 2017).
